Results taken from ChEMBL document CHEMBL1201862, “PubChem BioAssay data set” (2004).
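Each compound was tested at five concentrations against cells in 96-well plates for 48 hours. Here, GI50 denotes the concentration required for 50% inhibition of growth.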 Activity calls are given as the source filed them. No stated cut-off is given here; in the data, active = GI50 up to about 1.1 µM and inactive = higher.

Tests used:
Test in all cases: inhibition of tumour cell growth, NCI panel, 48 h
[1] = tested on: 786-0
[2] = tested on: A549
[3] = tested on: CAKI-1
[4] = tested on: COLO 205
[5] = tested on: HL-60
[6] = tested on: KM12
[7] = tested on: M14
[8] = tested on: OVCAR-3
[9] = tested on: OVCAR-4
[10] = tested on: RPMI-8226
[11] = tested on: SF-268
[12] = tested on: SF-295
[13] = tested on: SF-539
[14] = tested on: SK-MEL-5
[15] = tested on: SNB-19
[16] = tested on: UO-31
[17] = tested on: ACHN
[18] = tested on: HCT-116
[19] = tested on: NCI-H23
[20] = tested on: UACC-62

Measured: GI50

CN(C)C(=O)OC(Cn1cncn1)(Cn1cncn1)c1ccc(Cl)cc1Cl
inactive: [1] > 100 µM | [2] > 100 µM | [3] > 100 µM | [4] > 100 µM | [5] > 100 µM | [6] > 100 µM | [7] > 100 µM | [8] > 100 µM | [9] > 100 µM | [10] > 100 µM | [11] > 100 µM | [12] > 100 µM | [13] > 100 µM | [14] > 100 µM | [15] > 100 µM | [16] > 100 µM

Fc1ccc(Nc2nnc(-c3ccccn3)s2)cc1
inactive: [1] > 100 µM | [2] > 100 µM | [17] > 100 µM | [3] > 100 µM | [4] > 100 µM | [18] > 100 µM | [5] > 100 µM | [6] > 100 µM | [7] > 100 µM | [19] > 100 µM | [8] > 100 µM | [9] > 100 µM | [10] > 100 µM | [11] > 100 µM | [12] > 100 µM | [13] > 100 µM | [14] > 100 µM | [15] > 100 µM | [20] > 100 µM

O=C(Cn1c(=O)oc2ccc(C(=O)c3ccc(F)cc3)cc21)c1ccc([N+](=O)[O-])cc1
inactive: [1] 33 µM | [2] 37.1 µM | [17] 35 µM | [3] 47.6 µM | [4] 26.9 µM | [18] 29.6 µM | [5] 8.2 µM | [6] 22.8 µM | [7] 13 µM | [19] 45.6 µM | [9] 25.5 µM | [10] 22.2 µM | [11] 45 µM | [13] 41.1 µM | [14] 15.7 µM | [15] 47.1 µM | [20] 34.2 µM | [16] 19.6 µM

Oc1nc2nnc(COc3ccc(Cl)cc3Cl)n2nc1Cc1ccccc1
inactive: [1] 20.8 µM | [2] 94.2 µM | [17] 41.8 µM | [3] > 100 µM | [4] > 100 µM | [18] 52.5 µM | [5] 49.2 µM | [6] > 100 µM | [7] > 100 µM | [19] 43 µM | [8] 27.5 µM | [9] 47.8 µM | [10] > 100 µM | [11] 63.4 µM | [12] 32.3 µM | [13] 20.1 µM | [14] > 100 µM | [15] 31.6 µM | [16] 24.2 µM

COC(CN(C(=O)c1ccccc1)C1CCC2(SCCS2)c2[nH]c3ccccc3c21)OC (centres undefined)
inactive: [1] 37 µM | [2] 30.7 µM | [17] 27.8 µM | [3] 21 µM | [4] 21.9 µM | [18] 32.3 µM | [5] 16.9 µM | [6] 27.5 µM | [7] 30.7 µM | [19] 58.6 µM | [8] 25.8 µM | [9] 28.2 µM | [10] 29.6 µM | [11] > 100 µM | [12] 3.01 µM | [13] 63.1 µM | [14] 26 µM | [15] 22.4 µM | [16] 16 µM

COC(=O)[C@@H](OC(C)=O)[C@@H](OC(C)=O)c1nnc2ccc(Cl)nn12
inactive: [1] > 100 µM | [2] > 100 µM | [17] > 100 µM | [3] 92 µM | [4] > 100 µM | [18] > 100 µM | [5] > 100 µM | [6] > 100 µM | [7] > 100 µM | [19] > 100 µM | [8] > 100 µM | [9] > 100 µM | [10] 62.2 µM | [11] > 100 µM | [12] > 100 µM | [13] > 100 µM | [14] > 100 µM | [15] > 100 µM | [20] > 100 µM

CC(C)(C)COC1C2(OCCO2)C2CCC1(C)C2(C)C (centres undefined)
inactive: [1] 19.4 µM | [2] 23.6 µM | [17] 20.4 µM | [3] 40.1 µM | [4] 28.6 µM | [5] 24.8 µM | [6] 20 µM | [7] 44 µM | [19] 52.5 µM | [8] 17.6 µM | [9] 45 µM | [10] 19.9 µM | [11] 50.2 µM | [12] 18.7 µM | [13] 37.8 µM | [14] 30.3 µM | [15] 20.6 µM | [20] 54.7 µM | [16] 26.2 µM

CCOC(=O)NNC(=O)NCc1ccccc1CNC(=O)NNC(=O)OCC
inactive: [1] > 100 µM | [2] > 100 µM | [3] > 100 µM | [4] > 100 µM | [18] > 100 µM | [5] > 100 µM | [6] > 100 µM | [7] > 100 µM | [19] > 100 µM | [8] > 100 µM | [9] > 100 µM | [10] > 100 µM | [11] > 100 µM | [13] > 100 µM | [14] > 100 µM | [15] > 100 µM | [20] > 100 µM | [16] > 100 µM

C[N+](C)(C)CC(=O)N/N=C(/Cc1nc2c3c(ccc2nc1O)C(=O)c1ccccc1C3=O)C(=O)Nc1ccc(Cl)c(Cl)c1
inactive: [1] 77.6 µM | [2] 42.7 µM | [17] 24 µM | [3] 15.5 µM | [4] > 100 µM | [18] 43.3 µM | [5] 8.15 µM | [6] 19.7 µM | [7] 81.1 µM | [19] 44.6 µM | [8] 30.2 µM | [9] 87.9 µM | [10] 17.4 µM | [11] 26 µM | [12] 79.4 µM | [13] 93.1 µM | [14] 36.6 µM | [20] 41.6 µM | [16] 6.84 µM

COc1ccc(C23OCC(Cc4cc(OC)c(OC)cc42)C3CO)cc1OC (centres undefined)
inactive: [1] > 100 µM | [2] > 100 µM | [17] > 100 µM | [3] > 100 µM | [4] > 100 µM | [18] > 100 µM | [5] > 100 µM | [6] > 100 µM | [7] > 100 µM | [19] > 100 µM | [8] > 100 µM | [9] > 100 µM | [10] > 100 µM | [12] > 100 µM | [13] > 100 µM | [14] > 100 µM | [15] > 100 µM | [20] > 100 µM | [16] > 100 µM

Cn1c(=O)oc2cc(C3CCC(=O)N3Cc3ccc(Cl)cc3)ccc21 (centres undefined)
inactive: [1] > 100 µM | [2] > 100 µM | [17] > 100 µM | [3] > 100 µM | [4] > 100 µM | [18] > 100 µM | [5] > 100 µM | [6] > 100 µM | [7] > 100 µM | [19] > 100 µM | [9] > 100 µM | [10] > 100 µM | [11] > 100 µM | [12] > 100 µM | [13] > 100 µM | [14] > 100 µM | [15] > 100 µM | [20] > 100 µM | [16] > 100 µM

CCOP(=O)(OCC)C(C)(CC)N/C(=N\C1=NC(C(F)(F)F)(C(F)(F)F)N=C(C(F)(F)F)O1)NC(NC(C)=O)(C(F)(F)F)C(F)(F)F (centres undefined)
inactive: [1] 37.3 µM | [2] 53.5 µM | [17] 28.8 µM | [3] 42 µM | [4] 16.1 µM | [18] 33.3 µM | [5] 17.8 µM | [6] 35 µM | [7] 22.9 µM | [19] 18.2 µM | [8] 40.3 µM | [9] 16.5 µM | [10] 24.2 µM | [11] 52.2 µM | [12] 18 µM | [13] 40.2 µM | [14] 14.1 µM | [15] 60.4 µM | [20] 35.3 µM

Cc1cccc(NC(=O)Cc2nc3ccccc3s2)c1C
inactive: [1] > 100 µM | [2] > 100 µM | [17] > 100 µM | [3] > 100 µM | [4] > 100 µM | [5] > 100 µM | [6] > 100 µM | [7] > 100 µM | [19] > 100 µM | [8] > 100 µM | [9] > 100 µM | [10] > 100 µM | [11] > 100 µM | [12] > 100 µM | [13] > 100 µM | [14] > 100 µM | [15] > 100 µM | [20] > 100 µM | [16] > 100 µM

C(=N\c1ccc(-c2nc3ccccc3[nH]2)cc1)/c1ccc[nH]1
inactive: [1] 83.4 µM | [2] > 100 µM | [17] > 100 µM | [3] > 100 µM | [4] 41.3 µM | [18] 50.9 µM | [5] 1.91 µM | [6] 44.6 µM | [7] > 100 µM | [19] > 100 µM | [8] 69 µM | [9] 54.2 µM | [10] 37.8 µM | [11] 30.3 µM | [13] > 100 µM | [14] 30.3 µM | [20] 55.3 µM | [16] 69.3 µM

CCO/C(CCn1[nH]c(=O)c(Cl)c(Cl)c1=O)=N\NC(=O)C(=O)NN
inactive: [1] > 100 µM | [2] > 100 µM | [17] > 100 µM | [3] > 100 µM | [4] > 100 µM | [5] > 100 µM | [6] > 100 µM | [7] > 100 µM | [19] > 100 µM | [8] > 100 µM | [9] > 100 µM | [10] > 100 µM | [11] > 100 µM | [12] > 100 µM | [13] > 100 µM | [14] > 100 µM | [15] > 100 µM | [20] > 100 µM | [16] > 100 µM
